Measurements: the NIST ThermoML archive (doi:10.1016/j.jct.2012.02.007)
Numbers after ± are expanded uncertainties.

Columns and labels:
[1] = osmotic coefficient (dimensionless); mn = molality of the nth substance listed, in mol/kg; conditions: 323.15 K, Liquid, Vapor Pressure Osmometer
[2] = mn = molality of the nth substance listed, in mol/kg; conditions: 101.3 kPa, Liquid; for speed of sound: Sing-around technique in a fixed-path interferometer; for mass density: Vibrating tube method

CCCCn1cc[n+](C)c1.N#CN=C=[N-] [1-butyl-3-methylimidazolium dicyanamide] + CC(C)O
osmotic coefficient ([1]; m1 = 0.0572): 0.973 ± 0.012
osmotic coefficient ([1]; m1 = 0.0884): 0.925 ± 0.012
osmotic coefficient ([1]; m1 = 0.1125): 0.905 ± 0.012
osmotic coefficient ([1]; m1 = 0.2169): 0.838 ± 0.013
osmotic coefficient ([1]; m1 = 0.3275): 0.795 ± 0.014
osmotic coefficient ([1]; m1 = 0.4213): 0.77 ± 0.015
osmotic coefficient ([1]; m1 = 0.5065): 0.757 ± 0.015
osmotic coefficient ([1]; m1 = 0.8172): 0.712 ± 0.016
osmotic coefficient ([1]; m1 = 1.153): 0.682 ± 0.016
osmotic coefficient ([1]; m1 = 1.6): 0.665 ± 0.017
osmotic coefficient ([1]; m1 = 2.049): 0.641 ± 0.017
osmotic coefficient ([1]; m1 = 2.416): 0.619 ± 0.018
osmotic coefficient ([1]; m1 = 2.863): 0.592 ± 0.019
osmotic coefficient ([1]; m1 = 3.314): 0.565 ± 0.02
speed of sound ([2]; 293.15 K, m1 = 0.0497): 1163.1 ± 0.8 m/s
speed of sound ([2]; 293.15 K, m1 = 0.1012): 1167.4 ± 0.9 m/s
speed of sound ([2]; 293.15 K, m1 = 0.1541): 1171.9 ± 0.9 m/s
speed of sound ([2]; 293.15 K, m1 = 0.2003): 1175.6 ± 0.9 m/s
speed of sound ([2]; 293.15 K, m1 = 0.2521): 1179.7 ± 0.9 m/s
speed of sound ([2]; 293.15 K, m1 = 0.5105): 1199.3 ± 0.9 m/s
speed of sound ([2]; 293.15 K, m1 = 0.7616): 1216.7 ± 0.9 m/s
speed of sound ([2]; 293.15 K, m1 = 1.016): 1233.3 ± 1 m/s
speed of sound ([2]; 293.15 K, m1 = 1.264): 1248.4 ± 1 m/s
speed of sound ([2]; 293.15 K, m1 = 1.523): 1263.4 ± 1.1 m/s
speed of sound ([2]; 293.15 K, m1 = 1.784): 1278 ± 1.1 m/s
speed of sound ([2]; 293.15 K, m1 = 2.022): 1289.6 ± 1.1 m/s
speed of sound ([2]; 293.15 K, m1 = 2.519): 1312.7 ± 1.2 m/s
speed of sound ([2]; 293.15 K, m1 = 3.014): 1333.7 ± 1.2 m/s
speed of sound ([2]; 293.15 K, m1 = 3.553): 1356 ± 1 m/s
mass density ([2]; 293.15 K, m1 = 0.0497): 788.07 ± 0.13 kg/m3
mass density ([2]; 293.15 K, m1 = 0.1012): 790.54 ± 0.13 kg/m3
mass density ([2]; 293.15 K, m1 = 0.1541): 793.01 ± 0.13 kg/m3
mass density ([2]; 293.15 K, m1 = 0.2003): 795.12 ± 0.13 kg/m3
mass density ([2]; 293.15 K, m1 = 0.2521): 797.4 ± 0.13 kg/m3
mass density ([2]; 293.15 K, m1 = 0.5105): 808.27 ± 0.13 kg/m3
mass density ([2]; 293.15 K, m1 = 0.7616): 817.89 ± 0.13 kg/m3
mass density ([2]; 293.15 K, m1 = 1.016): 826.92 ± 0.14 kg/m3
mass density ([2]; 293.15 K, m1 = 1.264): 835.03 ± 0.14 kg/m3
mass density ([2]; 293.15 K, m1 = 1.523): 843.01 ± 0.15 kg/m3
mass density ([2]; 293.15 K, m1 = 1.784): 850.52 ± 0.16 kg/m3
mass density ([2]; 293.15 K, m1 = 2.022): 856.61 ± 0.16 kg/m3
mass density ([2]; 293.15 K, m1 = 2.519): 868.38 ± 0.18 kg/m3
mass density ([2]; 293.15 K, m1 = 3.014): 878.91 ± 0.2 kg/m3
mass density ([2]; 293.15 K, m1 = 3.553): 889.91 ± 0.22 kg/m3
speed of sound ([2]; 308.15 K, m1 = 0.0497): 1110.6 ± 0.8 m/s
speed of sound ([2]; 308.15 K, m1 = 0.1012): 1115.4 ± 0.8 m/s
speed of sound ([2]; 308.15 K, m1 = 0.1541): 1120.2 ± 0.8 m/s
speed of sound ([2]; 308.15 K, m1 = 0.2003): 1124.1 ± 0.9 m/s
speed of sound ([2]; 308.15 K, m1 = 0.2521): 1128.4 ± 0.9 m/s
speed of sound ([2]; 308.15 K, m1 = 0.5105): 1148.9 ± 0.9 m/s
speed of sound ([2]; 308.15 K, m1 = 0.7616): 1167 ± 0.9 m/s
speed of sound ([2]; 308.15 K, m1 = 1.016): 1184.4 ± 1 m/s
speed of sound ([2]; 308.15 K, m1 = 1.264): 1200 ± 1 m/s
speed of sound ([2]; 308.15 K, m1 = 1.523): 1215.6 ± 1 m/s
speed of sound ([2]; 308.15 K, m1 = 1.784): 1230.6 ± 1.1 m/s
speed of sound ([2]; 308.15 K, m1 = 2.022): 1242.8 ± 1.1 m/s
speed of sound ([2]; 308.15 K, m1 = 2.519): 1266.6 ± 1.2 m/s
speed of sound ([2]; 308.15 K, m1 = 3.014): 1288.3 ± 1.2 m/s
speed of sound ([2]; 308.15 K, m1 = 3.553): 1311.2 ± 1.3 m/s
mass density ([2]; 308.15 K, m1 = 0.0497): 775.35 ± 0.13 kg/m3
mass density ([2]; 308.15 K, m1 = 0.1012): 777.9 ± 0.13 kg/m3
mass density ([2]; 308.15 K, m1 = 0.1541): 780.44 ± 0.13 kg/m3
mass density ([2]; 308.15 K, m1 = 0.2003): 782.61 ± 0.13 kg/m3
mass density ([2]; 308.15 K, m1 = 0.2521): 784.94 ± 0.13 kg/m3
mass density ([2]; 308.15 K, m1 = 0.5105): 796.04 ± 0.13 kg/m3
mass density ([2]; 308.15 K, m1 = 0.7616): 805.84 ± 0.14 kg/m3
mass density ([2]; 308.15 K, m1 = 1.016): 815.02 ± 0.14 kg/m3
mass density ([2]; 308.15 K, m1 = 1.264): 823.26 ± 0.15 kg/m3
mass density ([2]; 308.15 K, m1 = 1.523): 831.36 ± 0.15 kg/m3
mass density ([2]; 308.15 K, m1 = 1.784): 838.97 ± 0.16 kg/m3
mass density ([2]; 308.15 K, m1 = 2.022): 845.16 ± 0.17 kg/m3
mass density ([2]; 308.15 K, m1 = 2.519): 857.09 ± 0.18 kg/m3
mass density ([2]; 308.15 K, m1 = 3.014): 867.77 ± 0.2 kg/m3
mass density ([2]; 308.15 K, m1 = 3.553): 878.92 ± 0.22 kg/m3
speed of sound ([2]; 323.15 K, m1 = 0.0497): 1057.6 ± 0.8 m/s
speed of sound ([2]; 323.15 K, m1 = 0.1012): 1062.8 ± 0.8 m/s
speed of sound ([2]; 323.15 K, m1 = 0.1541): 1067.8 ± 0.8 m/s
speed of sound ([2]; 323.15 K, m1 = 0.2003): 1072 ± 0.8 m/s
speed of sound ([2]; 323.15 K, m1 = 0.2521): 1076.6 ± 0.9 m/s
speed of sound ([2]; 323.15 K, m1 = 0.5105): 1098.1 ± 0.9 m/s
speed of sound ([2]; 323.15 K, m1 = 0.7616): 1117.1 ± 0.9 m/s
speed of sound ([2]; 323.15 K, m1 = 1.016): 1135.3 ± 1 m/s
speed of sound ([2]; 323.15 K, m1 = 1.264): 1151.6 ± 1 m/s
speed of sound ([2]; 323.15 K, m1 = 1.523): 1167.9 ± 1 m/s
speed of sound ([2]; 323.15 K, m1 = 1.784): 1183.3 ± 1.1 m/s
speed of sound ([2]; 323.15 K, m1 = 2.022): 1196.1 ± 1.1 m/s
speed of sound ([2]; 323.15 K, m1 = 2.519): 1220.9 ± 1.2 m/s
speed of sound ([2]; 323.15 K, m1 = 3.014): 1243.4 ± 1.2 m/s
speed of sound ([2]; 323.15 K, m1 = 3.553): 1267 ± 1.3 m/s
mass density ([2]; 323.15 K, m1 = 0.0497): 761.85 ± 0.13 kg/m3
mass density ([2]; 323.15 K, m1 = 0.1012): 764.5 ± 0.1 kg/m3
mass density ([2]; 323.15 K, m1 = 0.1541): 767.13 ± 0.13 kg/m3
mass density ([2]; 323.15 K, m1 = 0.2003): 769.37 ± 0.13 kg/m3
mass density ([2]; 323.15 K, m1 = 0.2521): 771.79 ± 0.13 kg/m3
mass density ([2]; 323.15 K, m1 = 0.5105): 783.22 ± 0.14 kg/m3
mass density ([2]; 323.15 K, m1 = 0.7616): 793.27 ± 0.14 kg/m3
mass density ([2]; 323.15 K, m1 = 1.016): 802.67 ± 0.14 kg/m3
mass density ([2]; 323.15 K, m1 = 1.264): 811.1 ± 0.2 kg/m3
mass density ([2]; 323.15 K, m1 = 1.523): 819.36 ± 0.15 kg/m3
mass density ([2]; 323.15 K, m1 = 1.784): 827.12 ± 0.16 kg/m3
mass density ([2]; 323.15 K, m1 = 2.022): 833.43 ± 0.17 kg/m3
mass density ([2]; 323.15 K, m1 = 2.519): 845.59 ± 0.19 kg/m3
mass density ([2]; 323.15 K, m1 = 3.014): 856.45 ± 0.2 kg/m3
mass density ([2]; 323.15 K, m1 = 3.553): 867.79 ± 0.22 kg/m3
